Measured values published in paper PMC11719606, “Exploring the Inhibition of Toxoplasma gondii α-Carbonic Anhydrase by Sulfonamides: Insights into Potential Drug Targeting” (International Journal of Molecular Sciences, 2024).

Target: T1, Tg_CA (Toxoplasma gondii, UniProt S8F479)
T1 construct: gene TGME49_259950; alpha-CA domain, residues 487-830 of an 861-residue protein; E. coli BL21(DE3) codon-plus; about 47 kDa
T1 sequence (S8F479 487-830): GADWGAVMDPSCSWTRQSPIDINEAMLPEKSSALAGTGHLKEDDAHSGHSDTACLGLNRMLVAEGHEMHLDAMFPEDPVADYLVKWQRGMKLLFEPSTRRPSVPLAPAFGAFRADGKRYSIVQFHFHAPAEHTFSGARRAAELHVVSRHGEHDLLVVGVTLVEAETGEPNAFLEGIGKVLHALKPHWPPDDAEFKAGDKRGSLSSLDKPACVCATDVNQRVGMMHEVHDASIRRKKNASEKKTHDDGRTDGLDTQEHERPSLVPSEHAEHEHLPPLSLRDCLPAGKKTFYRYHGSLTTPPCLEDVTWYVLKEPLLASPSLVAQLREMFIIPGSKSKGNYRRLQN
Experiment: stopped-flow CO2 hydration, phenol red, Cheng-Prusoff
Type: biochemical

`CCN[C@H]1CN(CCCOC)S(=O)(=O)c2sc(S(N)(=O)=O)cc21` [BRZ, Brinzolamide] was tested, and the Ki was 77.8 nM.
For `NS(=O)(=O)c1nnc(NS(=O)(=O)c2ccccc2)s1` [BZA, Benzolamide], the Ki was 62.1 nM.
Compound `Cc1ccc(-c2cc(C(F)(F)F)nn2-c2ccc(S(N)(=O)=O)cc2)cc1` [CLX, Celecoxib] has a Ki of 508 nM.
For `NS(=O)(=O)c1cc(Cl)c(Cl)c(S(N)(=O)=O)c1` [DCP, Dichlorphenamide], the Ki was 77.5 nM.
In the case of `NS(=O)(=O)c1cc2c(cc1Cl)NCNS2(=O)=O` [HCT, Hydrochlorothiazide], the Ki is reported as 839 nM.
`NS(=O)(=O)c1ccc(S(=O)(=O)Nc2cccc3c(Cl)c[nH]c23)cc1` [IND, Indisulam] gave a Ki of 84 nM.
With `CC(=O)N=c1sc(S(N)(=O)=O)nn1C` [MZA, Methazolamide] the Ki was 24.7 nM.
Work on `O=C1NS(=O)(=O)c2ccccc21` [SAC, Saccharin] yielded a Ki of 8450 nM.
`CC1(C)O[C@@H]2[C@@H](CO[C@@]3(COS(N)(=O)=O)OC(C)(C)O[C@@H]23)O1` [TPM, Topiramate] gave a Ki of 720 nM.
For `Cc1onc(-c2ccccc2)c1-c1ccc(S(N)(=O)=O)cc1` [VLX, Valdecoxib], the Ki was 426 nM.
Compound `NS(=O)(=O)Cc1noc2ccccc12` [ZNS, Zonisamide] has a Ki of 912 nM.
With `Cc1ccc(S(N)(=O)=O)cc1` [compound 4] the Ki was 586 nM.
`NCc1ccc(S(N)(=O)=O)cc1` [compound 5] gave a Ki of 739 nM.
For `NS(=O)(=O)c1cc(Cl)cc(Cl)c1O` [compound 10], the Ki was 578 nM.
`Nc1cc(C(F)(F)F)c(S(N)(=O)=O)cc1S(N)(=O)=O` [compound 11] showed a Ki of 65.1 nM.
In the case of `Nc1cc(Cl)c(S(N)(=O)=O)cc1S(N)(=O)=O` [compound 12], the Ki is reported as 73.8 nM.
`Nc1nnc(S(N)(=O)=O)s1` [compound 13] gave a Ki of 57.5 nM.
Compound `Cn1nc(S(N)(=O)=O)sc1=N` [compound 14] has a Ki of 61 nM.
In the case of `NS(=O)(=O)c1ccc(O)cc1` [compound 15], the Ki is reported as 76.4 nM.
In the case of `NS(=O)(=O)c1ccc(CO)cc1` [compound 16], the Ki is reported as 91.6 nM.
With `NS(=O)(=O)c1ccc(CCO)cc1` [compound 17] the Ki was 263 nM.
`NS(=O)(=O)c1ccc(C(=O)O)cc1` [compound 18] was tested, and the Ki was 85.3 nM.
`Nc1nccc(Nc2ccc(S(N)(=O)=O)cc2)n1` [compound 19] was tested, and the Ki was 72.5 nM.
`Nc1ccc(S(=O)(=O)Nc2nnc(S(N)(=O)=O)s2)cc1` [compound 20] gave a Ki of 17.8 nM.
For `NS(=O)(=O)c1ccc(CCNS(=O)(=O)c2ccc([N+](=O)[O-])cc2CO)cc1` [compound 21], the Ki was 94.7 nM.
In the case of `Nc1ccc(S(=O)(=O)Nc2ccc(S(N)(=O)=O)cc2)cc1` [compound 22], the Ki is reported as 91.2 nM.
In the case of `Nc1ccc(S(=O)(=O)NCc2ccc(S(N)(=O)=O)cc2)cc1` [compound 23], the Ki is reported as 93.4 nM.
`Nc1ccc(S(=O)(=O)NCCc2ccc(S(N)(=O)=O)cc2)cc1` [compound 24] was tested, and the Ki was 204 nM.
